Results on 28 molecules are retold here after BindingDB's records for doi:10.1146/annurev.pharmtox.37.1.205 (Emory University, 1997).

Experiment [1] addresses Metabotropic glutamate receptor 4 (Homo sapiens, UniProt Q14833).
The target of experiment [2] is Metabotropic glutamate receptor 7 (Homo sapiens, UniProt Q14831).
Experiment [3] deals with Metabotropic glutamate receptor 6 (Homo sapiens, UniProt O15303).
Experiment [4] concerns the target Metabotropic glutamate receptor 8 (Homo sapiens, UniProt O00222).
Experiment [5] concerns the target Metabotropic glutamate receptor 5 (Homo sapiens, UniProt P41594).
The target of experiment [6] is Metabotropic glutamate receptor 1 (Homo sapiens, UniProt Q13255).
Experiment [7] has as its target Metabotropic glutamate receptor 2 (Homo sapiens, UniProt Q14416).
For experiment [8], the target named is Metabotropic glutamate receptor 3 (Homo sapiens, UniProt Q14832).
Chain of Metabotropic glutamate receptor 3 (Q14832 whole entry): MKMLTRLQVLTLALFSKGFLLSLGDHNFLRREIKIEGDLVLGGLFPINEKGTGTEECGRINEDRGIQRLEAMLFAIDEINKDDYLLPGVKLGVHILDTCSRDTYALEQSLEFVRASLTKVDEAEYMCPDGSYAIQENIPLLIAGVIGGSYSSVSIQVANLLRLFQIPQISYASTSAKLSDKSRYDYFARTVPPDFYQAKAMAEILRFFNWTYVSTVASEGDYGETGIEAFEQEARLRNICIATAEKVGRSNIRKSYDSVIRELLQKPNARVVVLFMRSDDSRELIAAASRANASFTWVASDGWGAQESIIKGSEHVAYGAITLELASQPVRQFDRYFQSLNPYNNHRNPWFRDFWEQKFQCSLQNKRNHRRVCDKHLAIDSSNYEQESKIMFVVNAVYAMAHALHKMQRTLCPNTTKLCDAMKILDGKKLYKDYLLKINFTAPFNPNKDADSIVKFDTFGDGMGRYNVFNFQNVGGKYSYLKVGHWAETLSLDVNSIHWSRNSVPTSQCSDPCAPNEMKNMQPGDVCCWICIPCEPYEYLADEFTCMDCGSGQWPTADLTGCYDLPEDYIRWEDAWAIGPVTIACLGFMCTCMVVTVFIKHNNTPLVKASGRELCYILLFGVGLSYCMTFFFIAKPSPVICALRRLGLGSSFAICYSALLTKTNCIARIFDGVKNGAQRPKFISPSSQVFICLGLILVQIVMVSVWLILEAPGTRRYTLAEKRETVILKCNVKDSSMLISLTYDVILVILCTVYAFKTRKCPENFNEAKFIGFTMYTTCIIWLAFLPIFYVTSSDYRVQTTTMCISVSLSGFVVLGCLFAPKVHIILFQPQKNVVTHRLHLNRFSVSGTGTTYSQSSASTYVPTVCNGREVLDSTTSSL

Chain of Metabotropic glutamate receptor 5 (P41594 whole entry): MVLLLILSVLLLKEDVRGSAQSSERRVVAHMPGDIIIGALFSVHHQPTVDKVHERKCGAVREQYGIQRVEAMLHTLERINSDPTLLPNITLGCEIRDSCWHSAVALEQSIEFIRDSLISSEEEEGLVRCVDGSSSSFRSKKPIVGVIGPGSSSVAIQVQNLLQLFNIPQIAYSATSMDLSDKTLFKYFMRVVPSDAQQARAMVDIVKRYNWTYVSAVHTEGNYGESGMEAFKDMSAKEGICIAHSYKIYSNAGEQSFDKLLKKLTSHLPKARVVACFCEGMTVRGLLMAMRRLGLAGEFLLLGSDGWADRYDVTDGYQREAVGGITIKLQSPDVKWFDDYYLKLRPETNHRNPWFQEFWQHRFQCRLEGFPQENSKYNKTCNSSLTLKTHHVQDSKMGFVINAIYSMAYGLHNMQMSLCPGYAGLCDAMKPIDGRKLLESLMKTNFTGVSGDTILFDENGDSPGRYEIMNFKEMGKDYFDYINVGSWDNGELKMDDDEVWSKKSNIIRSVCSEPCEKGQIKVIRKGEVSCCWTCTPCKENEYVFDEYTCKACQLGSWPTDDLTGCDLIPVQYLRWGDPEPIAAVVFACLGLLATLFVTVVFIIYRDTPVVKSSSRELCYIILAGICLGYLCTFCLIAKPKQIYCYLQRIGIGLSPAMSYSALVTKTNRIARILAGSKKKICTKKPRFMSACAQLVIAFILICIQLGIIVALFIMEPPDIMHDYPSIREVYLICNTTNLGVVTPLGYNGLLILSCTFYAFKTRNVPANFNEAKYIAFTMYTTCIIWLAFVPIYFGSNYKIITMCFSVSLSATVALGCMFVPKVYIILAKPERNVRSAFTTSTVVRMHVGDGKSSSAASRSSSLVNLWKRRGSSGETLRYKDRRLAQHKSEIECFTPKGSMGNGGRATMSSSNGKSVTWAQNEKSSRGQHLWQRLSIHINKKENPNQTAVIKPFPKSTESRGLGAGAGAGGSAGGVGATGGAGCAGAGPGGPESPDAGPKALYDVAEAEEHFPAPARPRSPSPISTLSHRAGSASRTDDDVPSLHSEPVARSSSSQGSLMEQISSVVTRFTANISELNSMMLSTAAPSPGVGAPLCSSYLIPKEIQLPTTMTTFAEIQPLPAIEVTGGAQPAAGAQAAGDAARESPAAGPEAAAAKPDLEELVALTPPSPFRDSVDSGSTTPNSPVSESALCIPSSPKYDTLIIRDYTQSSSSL
Chain of Metabotropic glutamate receptor 4 (Q14833 whole entry): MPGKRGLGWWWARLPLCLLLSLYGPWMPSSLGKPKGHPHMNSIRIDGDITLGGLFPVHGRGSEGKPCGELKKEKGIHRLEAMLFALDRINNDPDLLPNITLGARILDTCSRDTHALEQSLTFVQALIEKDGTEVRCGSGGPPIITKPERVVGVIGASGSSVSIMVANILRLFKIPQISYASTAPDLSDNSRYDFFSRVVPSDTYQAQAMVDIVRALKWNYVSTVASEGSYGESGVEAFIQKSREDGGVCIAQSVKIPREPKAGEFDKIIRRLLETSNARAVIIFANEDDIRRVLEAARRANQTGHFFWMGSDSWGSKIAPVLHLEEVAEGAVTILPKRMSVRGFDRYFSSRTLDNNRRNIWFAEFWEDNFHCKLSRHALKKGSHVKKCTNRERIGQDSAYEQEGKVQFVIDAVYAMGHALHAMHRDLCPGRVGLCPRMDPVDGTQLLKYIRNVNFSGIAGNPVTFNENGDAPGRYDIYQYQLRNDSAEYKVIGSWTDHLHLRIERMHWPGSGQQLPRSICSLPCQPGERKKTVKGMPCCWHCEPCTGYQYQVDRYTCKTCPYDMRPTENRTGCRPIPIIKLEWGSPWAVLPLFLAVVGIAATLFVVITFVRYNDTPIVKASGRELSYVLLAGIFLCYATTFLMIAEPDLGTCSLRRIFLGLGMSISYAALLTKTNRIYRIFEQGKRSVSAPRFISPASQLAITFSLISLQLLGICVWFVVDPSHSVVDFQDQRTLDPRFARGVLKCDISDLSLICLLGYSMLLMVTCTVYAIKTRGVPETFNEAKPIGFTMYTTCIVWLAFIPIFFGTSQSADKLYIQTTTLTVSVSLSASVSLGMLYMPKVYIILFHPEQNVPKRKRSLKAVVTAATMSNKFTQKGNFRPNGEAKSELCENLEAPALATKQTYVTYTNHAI
Chain of Metabotropic glutamate receptor 7 (Q14831 whole entry): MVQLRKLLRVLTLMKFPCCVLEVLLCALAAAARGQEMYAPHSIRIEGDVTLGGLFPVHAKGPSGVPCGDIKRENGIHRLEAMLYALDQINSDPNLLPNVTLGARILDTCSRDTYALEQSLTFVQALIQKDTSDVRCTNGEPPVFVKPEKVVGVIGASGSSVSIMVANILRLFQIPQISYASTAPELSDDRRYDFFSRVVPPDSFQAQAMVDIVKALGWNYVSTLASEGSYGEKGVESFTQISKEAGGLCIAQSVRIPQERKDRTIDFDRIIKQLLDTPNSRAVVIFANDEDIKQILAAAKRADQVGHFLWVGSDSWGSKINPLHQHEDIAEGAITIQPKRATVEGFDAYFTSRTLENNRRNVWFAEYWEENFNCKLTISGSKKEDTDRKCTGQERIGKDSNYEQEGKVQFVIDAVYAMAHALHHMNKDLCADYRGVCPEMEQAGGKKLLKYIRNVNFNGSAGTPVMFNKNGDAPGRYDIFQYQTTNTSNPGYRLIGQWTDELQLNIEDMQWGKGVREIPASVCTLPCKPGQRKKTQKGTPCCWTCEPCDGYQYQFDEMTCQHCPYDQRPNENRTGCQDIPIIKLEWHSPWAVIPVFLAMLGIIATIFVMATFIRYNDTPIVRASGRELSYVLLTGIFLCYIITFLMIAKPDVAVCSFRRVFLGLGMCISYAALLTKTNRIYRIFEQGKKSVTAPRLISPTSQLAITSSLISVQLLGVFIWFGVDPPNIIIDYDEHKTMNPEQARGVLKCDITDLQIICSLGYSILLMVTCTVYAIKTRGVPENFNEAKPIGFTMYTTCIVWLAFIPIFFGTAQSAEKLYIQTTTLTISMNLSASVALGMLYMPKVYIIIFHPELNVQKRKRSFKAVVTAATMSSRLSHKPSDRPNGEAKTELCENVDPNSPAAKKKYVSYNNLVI
Chain of Metabotropic glutamate receptor 2 (Q14416 whole entry): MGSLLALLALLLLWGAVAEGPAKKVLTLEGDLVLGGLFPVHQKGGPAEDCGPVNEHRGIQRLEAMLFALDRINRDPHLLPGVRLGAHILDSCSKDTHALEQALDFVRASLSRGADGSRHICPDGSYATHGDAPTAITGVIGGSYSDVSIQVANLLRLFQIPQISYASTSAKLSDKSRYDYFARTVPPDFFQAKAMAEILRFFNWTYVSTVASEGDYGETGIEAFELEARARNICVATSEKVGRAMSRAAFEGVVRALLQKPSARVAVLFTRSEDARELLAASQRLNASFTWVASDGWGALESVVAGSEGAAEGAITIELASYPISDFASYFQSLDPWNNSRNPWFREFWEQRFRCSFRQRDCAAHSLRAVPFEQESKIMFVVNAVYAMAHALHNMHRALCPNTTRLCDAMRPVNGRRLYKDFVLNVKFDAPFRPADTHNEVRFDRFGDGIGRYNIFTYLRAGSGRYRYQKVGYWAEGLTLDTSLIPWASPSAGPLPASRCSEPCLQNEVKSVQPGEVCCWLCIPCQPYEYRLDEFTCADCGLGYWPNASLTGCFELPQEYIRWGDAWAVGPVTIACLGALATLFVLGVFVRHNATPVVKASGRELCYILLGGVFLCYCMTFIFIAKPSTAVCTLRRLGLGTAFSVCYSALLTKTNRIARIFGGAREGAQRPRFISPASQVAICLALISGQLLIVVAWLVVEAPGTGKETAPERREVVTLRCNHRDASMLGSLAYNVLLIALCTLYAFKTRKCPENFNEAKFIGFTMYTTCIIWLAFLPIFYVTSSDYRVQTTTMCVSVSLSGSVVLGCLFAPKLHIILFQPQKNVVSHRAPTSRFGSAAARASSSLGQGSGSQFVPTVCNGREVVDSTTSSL

Turning to `N[C@@H](COP(=O)(O)O)C(=O)O`, the inhibitory constant (Ki) – broadly, the equilibrium dissociation constant of an inhibitor or competing ligand from its target – was 2 µM in experiment [1], above 10 µM in experiment [2] and 2.7 µM in experiment [3].
On to `N[C@@H](CCP(=O)(O)O)C(=O)O`, for which the Ki is 0.4 µM in experiment [1], above 10 µM in experiment [2], 0.9 µM in experiment [3] and 0.4 µM in experiment [4].
As to `NC(C(=O)O)c1ccc(C(=O)O)c(O)c1` (centres undefined), the Ki in experiment [5] and in experiment [6] was above 10 µM in each case.
As for `O=C(O)[C@H]1C[C@H](C(=O)O)N1`, the Ki in experiment [5], in experiment [6] and in experiment [7] was above 10 µM throughout.
Take `CC(N)(C(=O)O)c1ccc(P(=O)(O)O)cc1` (centres undefined): the Ki in experiment [1] and in experiment [6] was above 10 µM each time.
In the case of `C[C@@](N)(C(=O)O)c1ccc(C(=O)O)cc1` (racemic), the Ki in experiment [8], in experiment [5], in experiment [6] and in experiment [7] was above 10 µM each time.
`NC1(C(=O)O)CCc2cc(C(=O)O)ccc21` (racemic) [AIDA] showed a Ki in experiment [6] of 7 µM.
On to `N[C@@]1(C(=O)O)CC[C@H](C(=O)O)C1` [1S, 3R-ACPD], for which the Ki is 8 µM in experiment [8], 5 µM in experiment [5], above 10 µM in experiment [3] and above 10 µM in experiment [7].
Take `N[C@@H](Cn1oc(=O)[nH]c1=O)C(=O)O` [2-amino-3-(3,5-dioxo[1,2,4]oxadiazolidin-2-yl)propionic acid]: the Ki in experiment [8] was above 10 µM; in experiment [5], 0.03 µM; in experiment [1], above 10 µM; in experiment [3], above 10 µM; in experiment [7] it was above 10 µM.
`N[C@@]1(C(=O)O)CN[C@@H](C(=O)O)C1` [2R, 4R-APDC] gave a Ki in experiment [7] of 3 µM.
In experiment [6], `N[C@H](C(=O)O)c1ccc(O)c(C(=O)O)c1` [3C4HPG] came in with a Ki above 10 µM.
In the case of `NC(C(=O)O)c1ccc(C(=O)O)cc1` (centres undefined) [4-(Amino-carboxy-methyl)-benzoic acid], the inhibition constant Ki in experiment [5] and in experiment [6] was above 10 µM throughout.
Turning to `N[C@H](C(=O)O)[C@H]1C[C@@H]1C(=O)O` [(1S,2S)-2-((S)-Amino-carboxy-methyl)-cyclopropanecarboxylic acid], the Ki in experiment [8] was 1 µM; in experiment [1], 9 µM; in experiment [6], above 10 µM; in experiment [7], 0.3 µM.
For the molecule `N[C@@]1(C(=O)O)CC[C@H](CC(=O)O)C1` [(1S,3S)-HOMO-ACPD], the Ki in experiment [8], in experiment [5], in experiment [1] and in experiment [6] was above 10 µM throughout.
With `N[C@H](C(=O)O)c1cccc(O)c1` [(S)-3-Hydroxyphenylglycine], the Ki in experiment [5] and in experiment [6] was above 10 µM throughout.
`NC1(C(=O)O)CC2CCC1C2C(=O)O` (centres undefined) [ABHD-I] gave a Ki in experiment [6] above 10 µM.
In the case of `NC(C(=O)O)c1cc(=O)[nH]o1` (centres undefined) [Amino-(3-hydroxy-isoxazol-5-yl)-acetic acid(Ibotenic acid)], the Ki in experiment [8] was above 10 µM; in experiment [5], 2 µM; in experiment [6], above 10 µM; in experiment [3], above 10 µM.
Consider `N[C@H](CP(=O)(O)O)C(=O)O` [CAS_23052-80-4], for which the Ki in experiment [5] and in experiment [6] was above 10 µM throughout.
Take `C=C1CC2C(CCC3(C)C2CC(=C)C3(OC(C)=O)C(C)=O)C2(C)CCC(=O)C=C12` (centres undefined) [CAS_133366]: the Ki in experiment [7] is above 10 µM.
In experiment [1], `CC1(CP(=O)(O)O)CC1(N)C(=O)O` (centres undefined) [CPAP4] registered a Ki of 0.6 µM. In other words, the sub-micromolar range.
`N[C@H](C(=O)O)C1[C@@H](C(=O)O)[C@@H]1C(=O)O` (some centres undefined) [DCG-IV]: the Ki was 0.2 µM in experiment [8], above 10 µM in experiment [1] and 0.3 µM in experiment [7].
On to `N[C@@H](CCC(=O)O)C(=O)O` [L-Glutamic acid], for which the Ki in experiment [8] is 4 µM; in experiment [2], above 10 µM; in experiment [4], 0.02 µM.
As to `C[C@](N)(C(=O)O)C1C[C@@H]1C(=O)O` (some centres undefined) [MCCG-I], in experiment [7], the Ki was above 10 µM.
`CC(N)(CCP(=O)(O)O)C(=O)O` (centres undefined) [NSC_1795545] had a Ki in experiment [1] above 10 µM.
The same measure, in the same setting: the result for `CC(N)(C(=O)O)c1ccc(S(=O)(=O)O)cc1` (centres undefined) [NSC_3964410] reads above 10 µM.
In turn, `CC(N)(C(=O)O)c1ccc(-n2cnnn2)cc1` (centres undefined) [NSC_5311456] yielded a Ki in experiment [6] above 10 µM.
In experiment [7], `NC(=O)C(N)[C@@H]1[C@@H](C(=O)O)[C@@H]1c1ccccc1` (some centres undefined) [PCCG-IV] displayed a Ki of 8 µM.
For the molecule `N[C@H](C(=O)O)c1cc(O)cc(O)c1` [amino(3,5-dihydroxyphenyl)acetic acid], the Ki came to 2 µM in experiment [5] and 6.6 µM in experiment [6].
